According to patent US9782401B1, “Method of isolating phenanthroindolizidine alkaloids from Tylophora atrofolliculata with HIF-1 inhibitory activity, compositions comprising them and their use” (priority 2016, dated 2017):
Read-outs that look alike come from different tables or passages of the source.

What was measured:
HIF-1 [1] = biological target: T1, HIF-1 (Homo sapiens, UniProt Q16665); test: HIF-1-mediated reporter gene assay in T47D cells (HRE-luciferase, hypoxia-induced HIF-1 activation); assay type: cell-based; set-up: endogenous in cells; host or cells: T47D cells (American Type Culture Collection)
Description: The HIF-1-mediated reporter gene assay in T47D cells was performed according to a previous protocol with minor modification (Parhira, S. et al., Sci. Rep., 2014, 4, 4748). T47D cells (American Type Culture Collection) were cultured in DMEM medium (Invitrogen), supplemented with 10% (v/v) fetal serum (FBS) (Invitrogen), 100 U/mL penicillin, and 100 μg/mL streptomycin (Invitrogen) in a humidified atmosphere (5% CO2 and 95% air) at 37° C. Cells (5×10^6) were co-transfected with the HRE-luciferase (Addgene) and Renilla plasmids using Lipofectamine 2000 (Invitrogen) according to the manufacturer's protocol. The transfected cells were seeded in 96-well plates with a density of 5×10^4/well and cultured in DMEM with 10% FBS overnight. After addition of the test compounds with different concentrations, the cells were incubated for 1 h, and then exposed to hypoxic (2% O2/5% CO2/93% N2) or normoxic (5% CO2/95% air) conditions at 37° C. for 20 h. Then the cells were lysed, and luciferase assay was performed using a Dual-Luciferase® reporter assay (Promega) kit according to the instructions of the manufacturer. Luciferase activities of both HRE and Renilla were determined by a multimode reader (Infinite 200 PRO, Teacan). HIF-1 transcriptional activity was shown by the ratio of firefly/Renilla luciferase activity. IC50 values were determined from the dose-response curves using Prism software. The data were repeated by three independent experiments.

[2] = Cytotoxicity by MTT assay against T47D cells; conditions: human
Source text: (§1) All experiments were independently performed at least three times.

HIF-1 [3] = biological target: T1, HIF-1; conditions: literature value (Hodges et al. 2004; Cai et al. 2006); read-out: HIF-1 inhibition IC50 (literature); cited from earlier work
T47D cells = test: Cytotoxicity by MTT assay against T47D cells; conditions: read-out: Cytotoxicity against T47D cells IC50 (nM) Hypoxic; T47D cells, hypoxic conditions, MTT assay
Source text: as §1

[4] = T47D human breast tumor cells, HIF-1 activation induced by hypoxia (2% O2, 20 h), means±SD, read-out: HIF-1 activation inhibitory activity IC50 (nM) T47D
[5] = T47D cells, Cytotoxicity against T47D cells IC50 (nM) Hypoxic, hypoxic conditions, MTT assay
[6] = T47D cells, Cytotoxicity against T47D cells IC50 (nM) Normoxic, normoxic conditions, MTT assay
[7] = Cytotoxicity against T47D cells IC50 (nM) Hypoxic, T47D cells, hypoxic conditions, MTT assay
[8] = Cytotoxicity against T47D cells IC50 (nM) Normoxic, T47D cells, normoxic conditions, MTT assay

T1 sequence (Q16665 whole entry): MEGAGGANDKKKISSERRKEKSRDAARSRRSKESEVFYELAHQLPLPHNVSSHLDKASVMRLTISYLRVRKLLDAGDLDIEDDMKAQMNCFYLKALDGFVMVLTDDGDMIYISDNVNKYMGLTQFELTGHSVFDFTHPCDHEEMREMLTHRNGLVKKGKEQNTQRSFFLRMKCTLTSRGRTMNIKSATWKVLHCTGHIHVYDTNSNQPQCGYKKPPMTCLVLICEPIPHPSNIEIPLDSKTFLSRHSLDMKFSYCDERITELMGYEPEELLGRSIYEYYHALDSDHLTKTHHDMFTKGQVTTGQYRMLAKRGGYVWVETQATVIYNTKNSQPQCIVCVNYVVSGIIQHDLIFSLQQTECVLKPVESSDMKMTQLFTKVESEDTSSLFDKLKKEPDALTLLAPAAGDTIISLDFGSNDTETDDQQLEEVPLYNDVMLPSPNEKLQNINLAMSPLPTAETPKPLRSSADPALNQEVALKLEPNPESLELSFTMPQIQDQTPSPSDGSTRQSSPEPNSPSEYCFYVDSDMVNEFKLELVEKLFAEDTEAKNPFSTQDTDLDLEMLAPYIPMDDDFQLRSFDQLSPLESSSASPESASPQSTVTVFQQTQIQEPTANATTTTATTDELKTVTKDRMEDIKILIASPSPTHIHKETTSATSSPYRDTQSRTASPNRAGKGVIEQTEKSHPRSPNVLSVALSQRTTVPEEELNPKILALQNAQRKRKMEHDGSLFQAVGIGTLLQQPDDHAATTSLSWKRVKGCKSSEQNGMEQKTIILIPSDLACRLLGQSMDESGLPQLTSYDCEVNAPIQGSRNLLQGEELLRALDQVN

| Compound | IC50 [2, 5] [nM] | IC50 [2, 6] [nM] | IC50 (HIF-1 [1]) [nM] | IC50 [2, 7] [nM] | IC50 [2, 8] [nM] | also measured |
| --- | --- | --- | --- | --- | --- | --- |
| COc1ccc2c3c(c4cc(OC)c(OC)cc4c2c1)CN1O[C@@H](CC(C)=O)CC[C@H]1[C@H]3O (single isomer, unassigned) [compound 3, 12S, 14aS, 15S-11-oxa-12-(2-oxopropyl)-hydroxyboehmeriasin A] | > 20000 | > 10000 | – | – | – | IC50 (HIF-1 [1]; [4]): 2660 ± 1810 nM |
| COc1ccc([C@@H](O)[C@@H](C)Oc2ccc([C@H]3O[C@H](c4ccc(O[C@H](C)[C@H](O)c5ccc6c(c5)OCO6)c(OC)c4)[C@H](C)[C@H]3C)cc2OC)cc1OC [Manassantin B] | – | – | – | – | – | IC50 (HIF-1 [3]): 0.003 µM |
| COc1ccc2c3c(c4cc(OC)c(O)cc4c2c1)CN1C(=O)CC[C@H]1[C@H]3O [compound 1, 11-keto-tylophorinidine] | – | – | > 10000 | – | – | – |
| COc1cc2c3c(c4cc(O)c(OC)cc4c2cc1O)CC1CCCN1C3 (stereo not shown) [compound 4, 2-hydroxyl deoxytylophorinidine] | – | – | 19 ± 2 | > 500 | > 500 | – |
| COc1cc2c3c(c4cc(O)c(OC)cc4c2cc1O)C(O)C1CCCN1C3 (stereo not shown) [compound 5, 2-hydroxyl tylophorinidine] | > 250 | > 250 | 10 | – | – | – |
| COc1cc2c3c(c4ccc(O)cc4c2cc1O)[C@@H](O)[C@@H]1CCC[N@@+]1([O-])C3 [compound 6, 10R, 14R-3-O-demethyl tylophorinidine N-oxide] | > 200 | > 200 | – | – | – | IC50 (HIF-1 [1]; [4]): 50 ± 35 nM |
| COc1cc2c3c(c4cc(O)c(OC)cc4c2cc1O)[C@@H](O)[C@H]1CCC[N@+]1([O-])C3 [compound 7, 10S, 13aR, 14R-2-hydroxyl tylophorinidine N-oxide] | > 1000 | > 1000 | – | – | – | IC50 (HIF-1 [1]; [4]): 37 ± 8 nM |
| COc1cc2c(cc1O)c1c(c3cc(OC)c(OC)cc32)C[N@+]2([O-])CCC[C@H]2[C@@H]1O [compound 8, 10R-2-hydroxyl tylophorinine N-oxide] | > 1000 | > 1000 | 170 ± 106 | – | – | – |
| COc1cc2c(cc1O)c1c(c3cc(OC)c(OC)cc32)CN2CCC[C@@H]2[C@@H]1O [compound 9, 13aR-2-hydroxyl tylophorinine] | – | – | 489 ± 108 | > 2000 | > 2000 | – |
| COc1cc2c3c(c4cc(OC)c(OC)cc4c2cc1OC)[C@H](O)[C@@H]1CCC[N@@+]1([O-])C3 [compound 10, 10R, 13aS, 14S-14-hydroxytylophorine N-oxide] | > 2000 | > 2000 | – | – | – | IC50 (HIF-1 [1]; [4]): 441 nM |
| COc1cc2c3c(c4cc(OC)c(OC)cc4c2cc1OC)C[N@+]1([O-])CCC[C@H]1C3 [compound 11, 10R, 13aS-tylophorine N-oxide] | > 2000 | > 2000 | – | – | – | IC50 (HIF-1 [1]; [4]): 930 nM |
| COc1ccc2c3c(c4cc(OC)c(OC)cc4c2c1)C[N@+]1([O-])CCC[C@H]1C3 [compound 12, 10R-deoxytylophorinine N-oxide] | – | – | 254 | > 2000 | > 1000 | – |
| COc1cc2c3c(c4ccc(O)cc4c2cc1O)[C@H](O)[C@@H]1CCCN1C3 [compound 13, 3-O-demethyl tylophorinidine] | > 250 | > 250 | 10 | – | – | – |
| COc1ccc2c3c(c4cc(OC)c(O)cc4c2c1)CN1CCC[C@H]1[C@H]3O [compound 14, tylophorinidine] | > 100 | > 10 | 4 | – | – | – |
| COc1cc2c3c(c4ccc(O)cc4c2cc1OC)[C@H](O)[C@@H]1CCCN1C3 [compound 15, trans-(+)-3,14a-dihydroxy-6,7-dimethoxyphenanthroindolizidine] | > 250 | > 250 | – | – | – | IC50 (HIF-1 [1]; [4]): 6 ± 3 nM |
| COc1ccc2c3c(c4cc(OC)c(O)cc4c2c1)C[N+]1([O-])CCC[C@H]1[C@H]3O (stereo partly shown) [compound 16, tylophoridicine C] | – | – | 25 | – | – | IC50 (T47D cells): > 100 nM; IC50 [2]: > 100 nM |
| COc1ccc2c3c(c4cc(OC)c(OC)cc4c2c1)C[N+]1([O-])CCC[C@@H]1[C@@H]3O (stereo partly shown) [compound 17, tylophorinine N-oxide] | – | – | 3 | – | – | IC50 (T47D cells): > 100 nM; IC50 [2]: > 100 nM |
| COc1ccc2c3c(c4cc(OC)c(OC)cc4c2c1)CN1CCC[C@H]1[C@@H]3O [compound 18, tylophorinine] | – | – | 19 | > 500 | > 500 | – |
| COc1cc2c3c(c4cc(OC)c(OC)cc4c2cc1OC)CN1CCC[C@H]1C3 [compound 19, 13aS-tylophorine] | – | – | 438 | > 2000 | > 1000 | – |
| COc1ccc2c3c(c4cc(OC)c(OC)cc4c2c1)CN1CCC[C@H]1C3 [compound 20, deoxytylophorinine] | – | – | 115 | > 15000 | > 600 | times more potent than its dehydrogenated product (22) (HIF-1 [1]; compound (20) versus (22), HIF-1 IC50): at least 8 times |
| COc1ccc2c3c(c4cc(OC)c(OC)cc4c2c1)CN1CCC[C@H]1[C@H]3O [compound 21, O-methyl-tylophorindine] | – | – | 13 | > 12500 | > 500 | – |
| COc1ccc2c(c1)c1cc(OC)c(OC)cc1c1c[n+]3c(cc21)CCC3 [compound 22, tylophoridicine D] | – | – | > 10000 | – | – | – |
